{"source": "patent EP0960886B1", "about": "“Peptide T and related peptides in the treatment of inflammation, including multiple sclerosis” (priority 1992, dated 1993)", "key": {"[1]": {"tested_on": "Molt-4", "assay": "Growth of spontaneously proliferating cell line Molt-4", "format": "cell-based", "conditions": "p56^lck negative human T lymphoma cell line", "description": "Molt-4 is a human T lymphoma cell line, p56^lck negative, and Jurkat is a human T cell line, p56^lck positive, that will grow spontaneously in the absence of exogenous stimuli."}, "[2]": {"assay": "Health-related quality of life and symptom assessment in MS patients (MS-modified MOS-HIV, PGWB, MS Symptom Checklist)", "format": "in vivo, human", "description": "To evaluate the impact of drug-related change on overall health and symptom burden, MS patients were followed routinely with both recognized and newly developed health-related quality of life instruments: an MS-modified version of the 30-item Medical Outcomes Study-HIV Survey (MOS-HIV) originally developed by Dr. Albert Wu, the 22-item Psychological General Well-Being Schedule (PGWB) developed by Dr. Harold Dupuy, and the MS Symptom Checklist developed for this study. These instruments, of which the first two have previously been validated and shown to be responsive to change in other disease states, allow quantitation of self-reported symptom variation (see Brook et al., Medical Care 17(7 Suppl.) 1-54 (1979), Fazio \"A Concurrent Validation Survey of the NCHS General Well-Being Schedule\", US Dept of Health, Education and Welfare, National Center for Health Statistics, Hyattsville, Maryland, USA 1977, McDowell and Newell \"Measuring Health: A Guide to Rating Scales and Questionnaires\", Oxford University Press 1987, Stewart et al., Medical Care 26 724-35 (1988), JAMA 262 907-13 (1989), and \"Measuring Functioning and Well-Being of Patients with Chronic Conditions: The Medical Outcomes Study Approach\", Duke University Press 1992, Wachtel et al., Ann. Int. Med. 116 129-137 (1992), Ware et al., \"Conceptualization and Measurement of Health for Adults in the Health Insurance Survey, Vol III: Mental Health\", Rand Corporation 1979, and Wu et al., Medical Care 29(8) 786-98 (1991)).\nGiven the small number of patients involved in this report, some of whom received Peptide T in an on-off-on design, it would not be expected that statistical significance might be obtained. To facilitate establishment of any trends, three patients who stopped taking Peptide T and then restarted the drug some weeks later after a new baseline period appear twice in the following analysis. In this manner, 8 baseline and repeated measures (at weeks 0, 4, 8, and 12) were defined and analysed using two-tailed paired t-tests: see Table XIV."}, "[3]": {"tested_on": "K562 cells", "assay": "MO/MAC supernatant cytotoxicity against K562 cells", "format": "cell-based", "experimental": "Supernatant (SN) of activated MO/MAC were collected from monolayers of PBMC derived adherent cells that had been exposed to LPS for 23 hours. This SN was tested for cytolytic activity against ^3H-thymidine labelled K562 cells in a 48 hour, 37°C cytotoxicity assay. SN were stored at 4°C overnight or stored frozen at -20°C for longer periods before using.\nThe ability of MO/MAC culture SN to lyse target K562 cells was determined in the presence of Peptide T. MO/MAC culture SN was used at a final dilution of 1:6 in the culture well."}, "[4]": {"tested_on": "p56^lck", "assay": "lck specific tyrosine kinase assay (autophosphorylation) in PBL blasts (Example 10)", "format": "cell-based", "design": "key: ++++: highly active; +: slightly active", "conditions": "Unstimulated PBL blasts; Peptide T 10^-9 M for 2 hours; without P.T. +++", "experimental": "PBL (peripheral blood leukocyte) blasts were prepared by incubating PBMC at 37°C with PHA (10 µg/ml) in RPMI + 10% FBS for 48 hours followed by addition of interleukin-2 and incubation for a subsequent 96 hours. Cells were washed free of IL-2 and incubated for 24 hours then washed free of FBS and incubated for 24 hours. PBL blasts remained either […] or were. treated with OKT4A (anti-CD4) at 10 µg/ml for 1 hour followed by rat anti-mouse Ig at 5 µg/ml for 5 minutes to enhance lck activity. PBL blasts were pretreated with Peptide T (10^-9 M) for 2 hours, then washed extensively before anti-CD4 stimulation. Following immunoprecipitation with anti-lck-Protein A conjugates and incubation (37°C, 10 minutes) with ^32P-ATP, p56^lck autophosphorylation was determined by autoradiography and used as a measure of p56^lck activity.\nPeptide T will inhibit the PHA-induced activation and anti-CD4 dependent enhancement of p56^lck activity as we have determined (Table V) by an lck specific tyrosine kinase assay. p56^lck is a CD4 associated tyrosine kinase involved in T cell activation and transmembrane signalling (Janeway C.A. Ann. Rev. Immunol. 10 645-674 (1992)). […]"}, "[5]": {"tested_on": "PBMC", "assay": "Antigen (measles, mumps and rubella vaccine) induced PBMC proliferation (Example 11)", "format": "cell-based, human", "conditions": "without Peptide T 3.26 ± 0.55", "experimental": "PBMC were incubated as described in relation to Table III in Example 9 in the presence of live, attenuated measles, mumps and rubella vaccine (Merck Sharp and Dohme, Canada) at a final dilution of 1:20. Peptide T was added either on day 1 of incubation or on a daily basis. Results are expressed as a proliferation index ± standard deviation."}}, "data": [{"smiles": "C[C@@H](N)C(=O)N[C@@H](CO)C(=O)N[C@H](C(=O)N[C@H](C(=O)N[C@H](C(=O)N[C@@H](CC(N)=O)C(=O)N[C@@H](Cc1ccc(O)cc1)C(=O)N[C@H](C(N)=O)[C@@H](C)O)[C@@H](C)O)[C@@H](C)O)[C@@H](C)O", "note": "[Peptide T, D-Ala-Ser-Thr-Thr-Thr-Asn-Tyr-Thr-NH2]", "values": [{"measurement": "growth of Molt-4 cell line", "setting": "[1]", "result": "did not significantly affect"}, {"measurement": "malaise", "setting": "[2]; 4 and 8 weeks", "result": "statistacally significant"}, {"measurement": "forgetfulness and slowness in thinking", "setting": "[2]; human, in vivo", "result": "trend towards improvement"}, {"measurement": "Mean improvements in measures of energy", "setting": "[2]; week 12, all three instruments", "result": "exceeded 2 standard deviations"}, {"measurement": "physical discomfort, mental health and health distress (MS-modified MOS-HIV)", "setting": "[2]; weeks 4, 8 and 12", "result": "either a trend or statistically significant improvement"}, {"measurement": "energy, general quality of life, well-being and unweighted summary score (MS-modified MOS-HIV)", "setting": "[2]; weeks 4, 8 and 12 vs baseline, two-tailed paired t-tests", "result": "Improvement was statistically significant"}, {"measurement": "concentration below which cytotoxicity returned to control levels", "setting": "[3]; Figure 8", "result": "below 1x10^-15 M"}, {"measurement": "concentration still able to block MO/MAC SN mediated lysis of K562", "setting": "[3]; SN at final dilution of 1:6", "result": 0.1, "unit": "pM"}, {"measurement": "activity of p56^lck", "setting": "[4]", "result": "+"}, {"measurement": "Proliferation Index ± S.D.", "setting": "[5]; Peptide T added Daily, 10^-7 Mol/L", "result": "1.83 ± 0.36"}, {"measurement": "Proliferation Index ± S.D.", "setting": "[5]; Peptide T added Daily, 10^-9 Mol/L", "result": "0.98 ± 0.16"}, {"measurement": "Proliferation Index ± S.D.", "setting": "[5]; Peptide T added Daily, 10^-11 Mol/L", "result": "1.56 ± 0.14"}, {"measurement": "Proliferation Index ± S.D.", "setting": "[5]; Peptide T added Daily, 10^-13 Mol/L", "result": "1.38 ± 0.51"}, {"measurement": "Proliferation Index ± S.D.", "setting": "[5]; Peptide T added Daily, 10^-15 Mol/L", "result": "1.56 ± 0.61"}, {"measurement": "Proliferation Index ± S.D.", "setting": "[5]; Peptide T added Daily, 10^-17 Mol/L", "result": "1.60 ± 0.60"}, {"measurement": "Proliferation Index ± S.D.", "setting": "[5]; Peptide T added Daily, 10^-19 Mol/L", "result": "2.27 ± 1.09"}, {"measurement": "Proliferation Index ± S.D.", "setting": "[5]; Peptide T added Day 1, 10^-7 Mol/L", "result": "4.02 ± 0.78"}, {"measurement": "Proliferation Index ± S.D.", "setting": "[5]; Peptide T added Day 1, 10^-9 Mol/L", "result": "1.91 ± 0.46"}, {"measurement": "Proliferation Index ± S.D.", "setting": "[5]; Peptide T added Day 1, 10^-11 Mol/L", "result": "5.35 ± 1.46"}, {"measurement": "Proliferation Index ± S.D.", "setting": "[5]; Peptide T added Day 1, 10^-13 Mol/L", "result": "5.46 ± 1.37"}, {"measurement": "Proliferation Index ± S.D.", "setting": "[5]; Peptide T added Day 1, 10^-15 Mol/L", "result": "5.56 ± 0.60"}, {"measurement": "Proliferation Index ± S.D.", "setting": "[5]; Peptide T added Day 1, 10^-17 Mol/L", "result": "3.99 ± 0.18"}, {"measurement": "Proliferation Index ± S.D.", "setting": "[5]; Peptide T added Day 1, 10^-19 Mol/L", "result": "6.15 ± 2.59"}]}]}
